According to ChEMBL document CHEMBL4184204, “Fusarithioamide B, a new benzamide derivative from the endophytic fungus Fusarium chlamydosporium with potent cytotoxic and antimicrobial activities” (Bioorg Med Chem, 2018):
≈ marks a conversion by molar mass, not a printed value.

What was measured:
Staphylococcus aureus [1] = assay: Antibacterial activity against Staphylococcus aureus AUMC B-54 assessed as diameter of inhibition zone after 24 hrs by agar disc diffusion method; format: functional
Bacillus cereus [2] = assay: Antibacterial activity against Bacillus cereus AUMC B-5 assessed as diameter of inhibition zone after 24 hrs by agar disc diffusion method; format: functional
Escherichia coli [3] = assay: Antibacterial activity against Escherichia coli AUMC B-53 assessed as diameter of inhibition zone after 24 hrs by agar disc diffusion method; format: functional
Pseudomonas aeruginosa [4] = assay: Antibacterial activity against Pseudomonas aeruginosa AUMC B-73 assessed as diameter of inhibition zone after 24 hrs by agar disc diffusion method; format: functional
Serratia marcescens [5] = assay: Antibacterial activity against Serratia marcescens AUMC B-55 assessed as diameter of inhibition zone after 24 hrs by agar disc diffusion method; format: functional
Candida albicans [6] = assay: Antifungal activity against Candida albicans AUMC 418 assessed as diameter of inhibition zone after 48 hrs by agar disc diffusion method; format: functional
Geotrichum candidum [7] = assay: Antifungal activity against Geotrichum candidum AUMC 226 assessed as diameter of inhibition zone after 48 hrs by agar disc diffusion method; format: functional
Trichophyton rubrum [8] = assay: Antifungal activity against Trichophyton rubrum AUMC 1804 assessed as diameter of inhibition zone after 48 hrs by agar disc diffusion method; format: functional
Escherichia coli [9] = assay: Antibacterial activity against Escherichia coli AUMC B-53 by microdilution method; format: functional
Pseudomonas aeruginosa [10] = assay: Antibacterial activity against Pseudomonas aeruginosa AUMC B-73 by microdilution method; format: functional
Staphylococcus aureus [11] = assay: Antibacterial activity against Staphylococcus aureus AUMC B-54 by microdilution method; format: functional
Bacillus cereus [12] = assay: Antibacterial activity against Bacillus cereus AUMC B-5 by microdilution method; format: functional
Serratia marcescens [13] = assay: Antibacterial activity against Serratia marcescens AUMC B-55 by microdilution method; format: functional
Candida albicans [14] = assay: Antifungal activity against Candida albicans AUMC 418 by microdilution method; format: functional
Geotrichum candidum [15] = assay: Antifungal activity against Geotrichum candidum AUMC 226 by microdilution method; format: functional
Trichophyton rubrum [16] = assay: Antifungal activity against Trichophyton rubrum AUMC 1804 by microdilution method; format: functional
SK-MEL = assay: Cytotoxicity against human SK-MEL cells after 48 hrs by neutral red dye based assay; format: functional, cell-based
KB = assay: Cytotoxicity against human KB cells after 48 hrs by neutral red dye based assay; format: functional, cell-based
BT-549 = assay: Cytotoxicity against human BT549 cells after 48 hrs by neutral red dye based assay; format: functional, cell-based; details: BT-549, 48 h
SK-OV-3 = assay: Cytotoxicity against human SKOV3 cells after 48 hrs by neutral red dye based assay; format: functional, cell-based; details: SK-OV-3, 48 h
MCF7 = assay: Cytotoxicity against human MCF7 cells after 48 hrs by neutral red dye based assay; format: functional, cell-based; details: MCF7, 48 h
HCT-116 = assay: Cytotoxicity against human HCT116 cells after 48 hrs by neutral red dye based assay; format: functional, cell-based; details: HCT-116, 48 h
Staphylococcus aureus [17] = assay: Antibacterial activity against Staphylococcus aureus AUMC B-54 assessed as diameter of inhibition zone at 10 ug/disc after 24 hrs by agar disc diffusion method; details: AUMC B-54, 24 h, read-out: DIZ
Bacillus cereus [18] = assay: Antibacterial activity against Bacillus cereus AUMC B-5 assessed as diameter of inhibition zone at 10 ug/disc after 24 hrs by agar disc diffusion method; format: functional; details: AUMC B-5, 24 h, read-out: DIZ
Escherichia coli [19] = assay: Antibacterial activity against Escherichia coli AUMC B-53 assessed as diameter of inhibition zone at 10 ug/disc after 24 hrs by agar disc diffusion method; details: AUMC B-53, 24 h, read-out: DIZ
Pseudomonas aeruginosa [20] = assay: Antibacterial activity against Pseudomonas aeruginosa AUMC B-73 assessed as diameter of inhibition zone at 10 ug/disc after 24 hrs by agar disc diffusion method; details: AUMC B-73, 24 h, read-out: DIZ
Serratia marcescens [21] = assay: Antibacterial activity against Serratia marcescens AUMC B-55 assessed as diameter of inhibition zone at 10 ug/disc after 24 hrs by agar disc diffusion method; format: functional; details: AUMC B-55, 24 h, read-out: DIZ
Candida albicans [22] = assay: Antifungal activity against Candida albicans AUMC 418 assessed as diameter of inhibition zone at 5 ug/disc after 48 hrs by agar disc diffusion method; format: functional; details: AUMC 418, 48 h, read-out: DIZ
Geotrichum candidum [23] = assay: Antifungal activity against Geotrichum candidum AUMC 226 assessed as diameter of inhibition zone at 5 ug/disc after 48 hrs by agar disc diffusion method; format: functional; details: AUMC 226, 48 h, read-out: DIZ
Trichophyton rubrum [24] = assay: Antifungal activity against Trichophyton rubrum AUMC 1804 assessed as diameter of inhibition zone at 5 ug/disc after 48 hrs by agar disc diffusion method; format: functional; details: AUMC 1804, 48 h, read-out: DIZ

## CC1NC(=O)C(C)(CC(=O)O)NC(CN)OC(CCS)NC(=O)c2ccccc2NC1=O (stereo not given)
Staphylococcus aureus [1]
  diameter of the inhibition zone (DIZ): 17.4 mm
Bacillus cereus [2]
  diameter of the inhibition zone (DIZ): 23 mm
Escherichia coli [3]
  diameter of the inhibition zone (DIZ): 25.1 mm
Pseudomonas aeruginosa [4]
  diameter of the inhibition zone (DIZ): 7.2 mm
Serratia marcescens [5]
  diameter of the inhibition zone (DIZ): 4.5 mm
Candida albicans [6]
  diameter of the inhibition zone (DIZ): 14.5 mm
Geotrichum candidum [7]
  diameter of the inhibition zone (DIZ): 28.9 mm
Trichophyton rubrum [8]
  diameter of the inhibition zone (DIZ): 40.3 mm
Escherichia coli [9]
  MIC: 3.7 µg/mL (≈ 7.91 µM)
Pseudomonas aeruginosa [10]
  MIC: 68.4 µg/mL (≈ 146 µM)
Staphylococcus aureus [11]
  MIC: 3.1 µg/mL (≈ 6.63 µM)
Bacillus cereus [12]
  MIC: 2.5 µg/mL (≈ 5.35 µM)
Serratia marcescens [13]
  MIC: 92.1 µg/mL (≈ 197 µM)
Candida albicans [14]
  MIC: 1.9 µg/mL (≈ 4.06 µM)
Geotrichum candidum [15]
  MIC: 6.9 µg/mL (≈ 14.8 µM)
Trichophyton rubrum [16]
  MIC: 5.2 µg/mL (≈ 11.1 µM)
SK-MEL
  IC50: 11200 nM
KB
  IC50: 6900 nM
BT-549
  IC50: 90 nM
SK-OV-3
  IC50: 1230 nM
MCF7
  IC50: 210 nM
HCT-116
  IC50: 590 nM

## O=C(O)c1cn(C2CC2)c2cc(N3CCNCC3)c(F)cc2c1=O [CIPROFLOXACIN]
Bacillus cereus [12]
  MIC: 2.9 µg/mL (≈ 8.75 µM)
Serratia marcescens [13]
  MIC: 9.1 µg/mL (≈ 27.5 µM)
Staphylococcus aureus [17]
  zone of inhibition at 10 µg/disc: 15.3 mm
Bacillus cereus [18]
  zone of inhibition at 10 µg/disc: 21.2 mm
Escherichia coli [19]
  zone of inhibition at 10 µg/disc: 25.6 mm
Pseudomonas aeruginosa [20]
  zone of inhibition at 10 µg/disc: 14.8 mm
Serratia marcescens [21]
  zone of inhibition at 10 µg/disc: 30.1 mm

## Clc1ccccc1C(c1ccccc1)(c1ccccc1)n1ccnc1 [CLOTRIMAZOLE]
Candida albicans [14]
  MIC: 2.8 µg/mL (≈ 8.12 µM)
Geotrichum candidum [15]
  MIC: 4.9 µg/mL (≈ 14.2 µM)
Trichophyton rubrum [16]
  MIC: 8.1 µg/mL (≈ 23.5 µM)
Candida albicans [22]
  zone of inhibition at 5 µg/disc: 17.9 mm
Geotrichum candidum [23]
  zone of inhibition at 5 µg/disc: 20.1 mm
Trichophyton rubrum [24]
  zone of inhibition at 5 µg/disc: 15.5 mm

## COc1cccc2c1C(=O)c1c(O)c3c(c(O)c1C2=O)C[C@@](O)(C(=O)CO)C[C@@H]3O[C@H]1C[C@H](N)[C@H](O)[C@H](C)O1 [DOXORUBICIN]
SK-MEL
  IC50: 159 nM
KB
  IC50: 24 nM
BT-549
  IC50: 45 nM
SK-OV-3
  IC50: 321 nM
HCT-116
  IC50: 240 nM
